These are literature values, as cited in patent US4039519A, “Broad spectrum antibiotics and method” (Chimie & Biologie, priority 1975, dated 1977).

The conditions of this series: oral administration; cited from earlier work.

In the case of colistine, the “passage of the gastro-intestinal barrier (known)” value is “cannot pass the gastro-intestinal barrier”.
